According to ChEMBL document CHEMBL5344475, “Indole-containing pharmaceuticals: targets, pharmacological activities, and SAR studies” (RSC Med Chem, 2024):

Assays:
[1] = target: 5-hydroxytryptamine receptor 1B (Homo sapiens, UniProt P28222); experiment: Binding affinity to 5-HT1B receptor (unknown origin) assessed as inhibition constant
[2] = Plasma clearance in iv dosed C57BL/6J mouse; type: ADME, organism-based
[3] = Terminal half life in human; type: ADME; details: read-out: beta t1/2 (converted)
[4] = Cmax in human plasma; type: ADME, cell-free
[5] = Terminal half life in human at 10 mg/kg, iv; details: in vivo, read-out: beta t1/2 (converted)
[6] = Binding affinity to MT1 receptor (unknown origin) assessed as inhibition constant; parameters: species or system Homo sapiens
[7] = Apparent oral clearance in human at 1 mg, po by LC-MS/MS analysis; type: ADME, organism-based; details: in vivo
[8] = Half life of compound in PBS buffer; type: physicochemical
[9] = target: T1, Prostaglandin G/H synthase 2 (Homo sapiens, UniProt P35354); experiment: Inhibition of COX-2 (unknown origin) using arachidonic acid as substrate preincubated for 15 mins followed by substrate addition by colorimetric assay
T1 sequence (P35354 whole entry): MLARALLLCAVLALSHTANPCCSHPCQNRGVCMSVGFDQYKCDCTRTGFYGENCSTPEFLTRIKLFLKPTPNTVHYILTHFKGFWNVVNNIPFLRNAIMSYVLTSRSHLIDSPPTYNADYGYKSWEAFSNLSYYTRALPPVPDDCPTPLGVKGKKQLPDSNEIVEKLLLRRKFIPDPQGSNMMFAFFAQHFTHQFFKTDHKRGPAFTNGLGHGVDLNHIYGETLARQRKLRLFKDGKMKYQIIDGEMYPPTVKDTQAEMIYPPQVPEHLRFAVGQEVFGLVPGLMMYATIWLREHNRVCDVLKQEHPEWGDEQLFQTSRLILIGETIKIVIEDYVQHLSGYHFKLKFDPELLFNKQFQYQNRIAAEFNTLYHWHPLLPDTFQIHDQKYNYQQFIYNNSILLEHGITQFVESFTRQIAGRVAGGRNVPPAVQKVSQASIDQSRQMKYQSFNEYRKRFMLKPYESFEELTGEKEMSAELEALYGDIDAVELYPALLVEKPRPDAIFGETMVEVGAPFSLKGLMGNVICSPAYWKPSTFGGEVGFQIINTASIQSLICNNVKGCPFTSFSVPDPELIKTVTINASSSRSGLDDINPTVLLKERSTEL

[10] = target: Prostaglandin G/H synthase 1 (Homo sapiens, UniProt P23219); experiment: Inhibition of COX1 (unknown origin)
[11] = Volume of distribution in Wistar rat; type: ADME; details: in vivo
[12] = Apparent oral clearance in human
[13] = Elimination half life in human; type: ADME; details: read-out: beta t1/2 (converted)
[14] = Volume of distribution at steady state in iv dosed human; details: in vivo, read-out: Vdss
[15] = Plasma clearance in iv dosed human
[16] = Oral bioavailability in human; type: ADME, organism-based; details: in vivo
[17] = Binding affinity to 5-HT3R (unknown origin) assessed as inhibition constant; parameters: species or system Homo sapiens
[18] = AUC in Sprague-Dawley rat at 10 mg/kg, iv by LC-MS/MS analysis; type: ADME, organism-based; parameters: dose 10 mg/kg, route iv; details: in vivo
[19] = Tmax in human plasma; type: ADME, cell-free
[20] = AUC in ICR mouse; type: ADME; details: in vivo
[21] = Elimination half life in human at 7.5 to 100 mg; type: ADME; details: dose 7.5-100 mg, read-out: beta t1/2 (converted)
[22] = Oral bioavailability in mouse; type: ADME, organism-based; details: in vivo
Dopamine receptor = experiment: Inhibition of dopamine receptor (unknown origin); type: protein assay, Homo sapiens
D(1A) dopamine receptor = D(1A) dopamine receptor (Homo sapiens, UniProt P21728); experiment: Binding affinity to dopamine D1 receptor (unknown origin) assessed as inhibition constant
[23] = Apparent oral renal clearance in human; type: ADME; details: read-out: CL(app)
[24] = Tmax in human; type: ADME
[25] = Half life in human; type: ADME
Half life in human = details: in vivo
[26] = target: Beta-2 adrenergic receptor (Homo sapiens, UniProt P07550); experiment: Binding affinity to human beta 2 adrenergic receptor assessed as inhibition constant
[27] = Terminal half life in iv dosed mouse; type: ADME, organism-based; details: in vivo, read-out: beta t1/2 (converted)
[28] = target: 5-hydroxytryptamine receptor 2B (Homo sapiens, UniProt P41595); experiment: Binding affinity to 5-HT2B receptor (unknown origin) assessed as inhibition constant
[29] = Volume of distribution in human; type: ADME
[30] = Elimination half life in rat; type: ADME; details: in vivo, read-out: beta t1/2 (converted)
[31] = Volume of distribution in human at 2.5 mg; type: ADME
[32] = Volume of distribution in human at 80 to 100 mg; type: ADME; details: dose 80-100 mg
[33] = Half life in human plasma; type: ADME, cell-free
[34] = Apparent volume of distribution in Sprague-Dawley rat at 1 mg/kg, iv; type: ADME, organism-based; details: in vivo
[35] = Effective half life in human; details: in vivo, read-out: t1/2eff (converted)
[36] = Cmax in human at 4 mg, po; type: ADME; parameters: dose 4 mg, route po; details: in vivo
[37] = AUC (0 to 24 hrs) in human at 40 mg, po by LC-MS/MS analysis; details: in vivo
[38] = Blood clearance in Wistar rat at 0.3 mg/kg, iv; type: ADME, organism-based
[39] = Plasma clearance in iv dosed human; details: in vivo
[40] = Volume of distribution at steady state in human; details: in vivo, read-out: Vdss
[41] = Initial half life in iv dosed mouse; details: in vivo, read-out: beta t1/2
[42] = Apparent oral clearance in human at 100 mg, po by LC-MS/MS analysis; type: ADME, organism-based; details: in vivo
[43] = target: 5-hydroxytryptamine receptor 1D (Homo sapiens, UniProt P28221); experiment: Binding affinity to 5-HT1DR (unknown origin) assessed as inhibition constant
Chain of 5-hydroxytryptamine receptor 1D (P28221 whole entry): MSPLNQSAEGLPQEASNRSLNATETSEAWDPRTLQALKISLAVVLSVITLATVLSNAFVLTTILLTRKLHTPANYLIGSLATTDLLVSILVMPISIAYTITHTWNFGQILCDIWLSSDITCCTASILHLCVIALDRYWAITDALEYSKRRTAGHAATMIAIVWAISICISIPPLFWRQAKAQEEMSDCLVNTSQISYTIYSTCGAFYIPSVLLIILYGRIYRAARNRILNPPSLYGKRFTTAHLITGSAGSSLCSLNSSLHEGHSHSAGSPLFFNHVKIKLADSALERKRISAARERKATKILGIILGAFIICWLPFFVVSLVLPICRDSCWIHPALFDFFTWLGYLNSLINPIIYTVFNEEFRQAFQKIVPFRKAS

Chain of 5-hydroxytryptamine receptor 2B (P41595 whole entry): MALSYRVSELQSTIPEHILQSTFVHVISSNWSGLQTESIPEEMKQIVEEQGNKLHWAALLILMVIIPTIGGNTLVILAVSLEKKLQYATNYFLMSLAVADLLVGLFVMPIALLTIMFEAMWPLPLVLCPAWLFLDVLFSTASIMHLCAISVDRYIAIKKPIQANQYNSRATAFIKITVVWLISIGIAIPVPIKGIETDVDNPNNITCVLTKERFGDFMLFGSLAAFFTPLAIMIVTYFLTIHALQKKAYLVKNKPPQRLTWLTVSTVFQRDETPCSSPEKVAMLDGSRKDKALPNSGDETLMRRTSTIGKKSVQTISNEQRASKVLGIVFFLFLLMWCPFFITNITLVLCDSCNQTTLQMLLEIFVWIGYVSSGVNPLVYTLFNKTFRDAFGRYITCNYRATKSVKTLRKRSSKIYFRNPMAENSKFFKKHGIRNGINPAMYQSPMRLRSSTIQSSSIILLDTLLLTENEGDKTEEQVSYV
Chain of 5-hydroxytryptamine receptor 1B (P28222 whole entry): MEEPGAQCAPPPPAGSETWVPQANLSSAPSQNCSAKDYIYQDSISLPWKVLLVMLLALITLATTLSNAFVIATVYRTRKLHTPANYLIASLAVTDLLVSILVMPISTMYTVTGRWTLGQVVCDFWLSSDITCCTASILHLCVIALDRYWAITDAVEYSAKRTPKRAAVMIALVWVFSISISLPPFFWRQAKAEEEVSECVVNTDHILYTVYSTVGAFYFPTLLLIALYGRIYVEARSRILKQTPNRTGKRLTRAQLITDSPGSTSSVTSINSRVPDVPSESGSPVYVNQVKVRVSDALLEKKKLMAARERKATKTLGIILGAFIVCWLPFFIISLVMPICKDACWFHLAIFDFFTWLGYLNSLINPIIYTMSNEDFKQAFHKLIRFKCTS
Chain of Prostaglandin G/H synthase 1 (P23219 whole entry): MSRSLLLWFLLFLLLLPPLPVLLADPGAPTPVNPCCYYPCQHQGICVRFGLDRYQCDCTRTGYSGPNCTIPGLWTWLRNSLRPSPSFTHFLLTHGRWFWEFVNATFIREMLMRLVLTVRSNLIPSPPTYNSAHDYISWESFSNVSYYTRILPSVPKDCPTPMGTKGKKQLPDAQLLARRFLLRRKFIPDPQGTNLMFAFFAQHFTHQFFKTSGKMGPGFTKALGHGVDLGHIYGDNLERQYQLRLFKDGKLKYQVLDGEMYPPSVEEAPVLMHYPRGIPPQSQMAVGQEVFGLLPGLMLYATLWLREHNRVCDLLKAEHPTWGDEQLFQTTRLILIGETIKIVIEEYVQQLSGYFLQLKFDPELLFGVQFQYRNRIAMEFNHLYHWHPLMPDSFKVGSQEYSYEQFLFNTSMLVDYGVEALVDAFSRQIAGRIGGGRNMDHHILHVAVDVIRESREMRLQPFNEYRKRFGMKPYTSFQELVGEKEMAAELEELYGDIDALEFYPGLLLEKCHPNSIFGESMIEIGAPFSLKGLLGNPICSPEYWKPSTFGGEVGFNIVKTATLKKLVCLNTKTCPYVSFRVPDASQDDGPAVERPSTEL
Chain of Beta-2 adrenergic receptor (P07550 whole entry): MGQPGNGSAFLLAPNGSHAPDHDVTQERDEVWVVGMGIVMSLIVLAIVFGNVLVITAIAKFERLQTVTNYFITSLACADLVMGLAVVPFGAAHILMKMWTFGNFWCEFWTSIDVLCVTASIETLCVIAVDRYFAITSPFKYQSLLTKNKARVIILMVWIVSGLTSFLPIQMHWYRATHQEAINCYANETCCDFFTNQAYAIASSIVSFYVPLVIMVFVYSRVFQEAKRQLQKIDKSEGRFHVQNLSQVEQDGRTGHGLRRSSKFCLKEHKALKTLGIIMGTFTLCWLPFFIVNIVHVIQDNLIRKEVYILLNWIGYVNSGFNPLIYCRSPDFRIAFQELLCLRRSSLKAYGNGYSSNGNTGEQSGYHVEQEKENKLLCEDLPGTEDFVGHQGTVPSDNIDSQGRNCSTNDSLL
Chain of D(1A) dopamine receptor (P21728 whole entry): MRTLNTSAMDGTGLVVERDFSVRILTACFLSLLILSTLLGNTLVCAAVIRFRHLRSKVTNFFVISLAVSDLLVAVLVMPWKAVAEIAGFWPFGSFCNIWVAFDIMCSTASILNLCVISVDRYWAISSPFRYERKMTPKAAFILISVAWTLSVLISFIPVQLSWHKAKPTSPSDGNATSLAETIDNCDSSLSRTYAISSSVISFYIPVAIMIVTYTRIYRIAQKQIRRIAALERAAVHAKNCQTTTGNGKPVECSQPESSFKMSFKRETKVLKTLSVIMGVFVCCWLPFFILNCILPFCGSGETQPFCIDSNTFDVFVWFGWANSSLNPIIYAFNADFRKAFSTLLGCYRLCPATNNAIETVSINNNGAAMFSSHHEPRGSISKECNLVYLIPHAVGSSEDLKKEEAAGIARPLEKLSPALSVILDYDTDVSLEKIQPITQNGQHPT

CNS(=O)(=O)CCc1ccc2[nH]cc(C3CCN(C)CC3)c2c1
Ki [1]: 1.5 nM

COc1ccc2[nH]c3c(c2c1)CCN[C@]31CS[C@@H]2c3c(OC(C)=O)c(C)c4c(c3[C@@H](COC1=O)N1[C@@H]2[C@H]2c3c(cc(C)c(OC)c3O)C[C@@H]([C@@H]1O)N2C)OCO4
clearance [2]: 183 mL/min
half-life [3]: 51 h
Cmax [4]: 107000 ng/mL

CN1CC(=O)N2[C@H](c3ccc4c(c3)OCO4)c3[nH]c4ccccc4c3C[C@@H]2C1=O
half-life [5]: 17.5 h
Ki [6]: 1.2 nM
CL/F [7]: 41.7 mL/min

COc1ccc2c(c1)c(CC(=O)OCC(=O)O)c(C)n2C(=O)c1ccc(Cl)cc1 [ACEMETACIN]
half-life [8]: 4.5 h
IC50 [9]: 10 nM
IC50 [10]: 10 nM

CCc1cc2c(cc1N1CCC(N3CCOCC3)CC1)C(C)(C)c1[nH]c3cc(C#N)ccc3c1C2=O [ALECTINIB]
Vd [11]: 4020 L
CL/F [12]: 1370 mL/min

Cc1[nH]cnc1CN1CCc2c(c3ccccc3n2C)C1=O [ALOSETRON]
half-life [13]: 1.5 h
Vd [14]: 65 L
clearance [15]: 600 mL/min
bioavailability [16]: 50%
Ki [17]: 0.5 nM

Cc1c(-c2ccc(O)cc2)n(Cc2ccc(OCCN3CCCCCC3)cc2)c2ccc(O)cc12 [BAZEDOXIFENE]
AUC [18]: 71 ng·h/mL
Vd [11]: 14.7 L/kg
Tmax [19]: 2.5 h

CC(C)C[C@H]1C(=O)N2CCC[C@H]2[C@]2(O)O[C@](NC(=O)[C@@H]3C=C4c5cccc6[nH]c(Br)c(c56)C[C@H]4N(C)C3)(C(C)C)C(=O)N12 [BROMOCRIPTINE]
AUC [20]: 2.38 ng·h/mL
half-life [21]: 4.85 h
bioavailability [22]: 90%

C=CCN1C[C@H](C(=O)N(CCCN(C)C)C(=O)NCC)C[C@@H]2c3cccc4[nH]cc(c34)C[C@H]21 [CABERGOLINE]
EC50 (Dopamine receptor): 13 nM
Ki (D(1A) dopamine receptor): 1.4 nM
CL renal [23]: 80 mL/min

CC(C(=O)O)c1ccc2c(c1)[nH]c1ccc(Cl)cc12 (stereo unspecified) [CARPROFEN]
Tmax [24]: 1 h
half-life [25]: 8 h

COc1ccccc1OCCNCC(O)COc1cccc2[nH]c3ccccc3c12 (stereo unspecified) [CARVEDILOL]
half-life (Half life in human): 7 h

CC(C)[C@@]1(NC(=O)[C@@H]2C[C@@H]3c4cccc5[nH]cc(c45)C[C@H]3N(C)C2)O[C@@]2(O)[C@@H]3CCCN3C(=O)[C@H](Cc3ccccc3)N2C1=O [DIHYDROERGOCRISTINE]
half-life (Half life in human): 3.5 h
Ki [26]: 2.4 nM

CN1C[C@H](C(=O)N[C@]2(C)O[C@@]3(O)[C@@H]4CCCN4C(=O)[C@H](Cc4ccccc4)N3C2=O)C[C@@H]2c3cccc4[nH]cc(c34)C[C@H]21 [DIHYDROERGOTAMINE]
half-life [27]: 9 h
Ki [28]: 3.7 nM

O=C(O[C@@H]1C[C@@H]2C[C@H]3C[C@H](C1)N2CC3=O)c1c[nH]c2ccccc12 [DOLASETRON]
Vd [29]: 5.8 L/kg

CC(C)n1c(/C=C/C(O)CC(O)CC(=O)O)c(-c2ccc(F)cc2)c2ccccc21 (stereo unspecified) [FLUVASTATIN]
Vd [29]: 0.35 L/kg

COc1ccc2c(c1)c(CC(=O)O)c(C)n2C(=O)c1ccc(Cl)cc1 [INDOMETHACIN]
half-life [30]: 7 h

CCN(CC)C(=O)N[C@H]1C=C2c3cccc4[nH]cc(c34)C[C@H]2N(C)C1 [LISURIDE]
Vd [31]: 1.73 L/kg
half-life [21]: 1.8 h

COc1ccc2[nH]cc(CCNC(C)=O)c2c1 [MELATONIN]
half-life [13]: 1 h
Ki [6]: 0.05 nM

CC[C@@H](CO)NC(=O)[C@@H]1C=C2c3cccc4[nH]cc(c34)C[C@H]2N(C)C1 [METHYLERGONOVINE]
half-life (Half life in human): 2.5 h
Vd [32]: 2.4 L/kg
bioavailability [16]: 40%

CO[C@@H]1[C@H](N(C)C(=O)c2ccccc2)C[C@H]2O[C@]1(C)n1c3ccccc3c3c4c(c5c6ccccc6n2c5c31)C(=O)NC4 [MIDOSTAURIN]
half-life [33]: 21 h
Vd [29]: 95.2 L

Cc1nccn1CC1CCc2c(c3ccccc3n2C)C1=O (stereo unspecified) [ONDANSETRON]
half-life [13]: 3.1 h
bioavailability [16]: 56%
Ki [28]: 2.5 nM

Cc1[nH]c2ccccc2c1CCNCc1ccc(/C=C/C(=O)NO)cc1 [PANOBINOSTAT]
half-life [33]: 37 h
CL/F [12]: 2670 mL/min

CCCN1C[C@H](CSC)C[C@@H]2c3cccc4[nH]cc(c34)C[C@H]21 [PERGOLIDE]
bioavailability [22]: 55%

CC(C)NCC(O)COc1cccc2[nH]ccc12 (stereo unspecified) [PINDOLOL]
half-life (Half life in human): 3 h
Tmax [24]: 1 h
Vd [32]: 2 L/kg

O=C1NCCN1CCN1CCC(c2cn(-c3ccc(F)cc3)c3ccc(Cl)cc23)CC1 [SERTINDOLE]
half-life (Half life in human): 53 h
Vd [32]: 20 L/kg
bioavailability [16]: 75%

CCCCCNC(=N)N/N=C/c1c[nH]c2ccc(OC)cc12 [TEGASEROD]
half-life [5]: 11 h
Vd [14]: 368 L
clearance [15]: 1280 mL/min

CC(C)(CO)c1cc2cc(NC(=O)C3(c4ccc5c(c4)OC(F)(F)O5)CC3)c(F)cc2n1C[C@@H](O)CO [TEZACAFTOR]
Vd/F [34]: 82 L
half-life [35]: 25.1 h

CN1[C@@H]2CC[C@H]1C[C@@H](OC(=O)c1c[nH]c3ccccc13)C2 [TROPISETRON]
half-life [33]: 5 h
bioavailability [16]: 60%

CCOC(=O)c1c(CSc2ccccc2)n(C)c2cc(Br)c(O)c(CN(C)C)c12 [UMIFENOVIR]
Cmax [36]: 415 ng/mL
half-life [33]: 17 h
Tmax [19]: 0.65 h

N#Cc1ccc2[nH]cc(CCCCN3CCN(c4ccc5oc(C(N)=O)cc5c4)CC3)c2c1 [VILAZODONE]
half-life [3]: 25 h
AUC [37]: 1640 ng·h/mL
Cmax [4]: 156 ng/mL

CC[C@]1(O)C[C@@H]2CN(CCc3c([nH]c4ccccc34)[C@@](C(=O)OC)(c3cc4c(cc3OC)N(C)[C@H]3[C@@](O)(C(=O)OC)[C@H](OC(C)=O)[C@]5(CC)C=CCN6CC[C@]43[C@@H]65)C2)C1 [VINBLASTINE]
half-life [27]: 1.6 h

CC[C@]12C=CCN3CC[C@@]4(c5cc([C@@]6(C(=O)OC)C[C@@H]7C[C@@H](C(C)(F)F)CN(Cc8c6[nH]c6ccccc86)C7)c(OC)cc5N(C)[C@H]4[C@@](O)(C(=O)OC)[C@@H]1OC(C)=O)[C@@H]32 [VINFLUNINE]
clearance [38]: 667 mL/min

CCC1=C[C@@H]2CN(C1)Cc1c([nH]c3ccccc13)[C@@](C(=O)OC)(c1cc3c(cc1OC)N(C)[C@H]1[C@@](O)(C(=O)OC)[C@H](OC(C)=O)[C@]4(CC)C=CCN5CC[C@]31[C@@H]54)C2 [VINORELBINE]
half-life [27]: 24.8 h
half-life [5]: 27.7 h
clearance [39]: 16.2 mL/min/kg
Vd [40]: 25.4 L/kg

COC(=O)[C@@H]1[C@H]2C[C@H]3c4[nH]c5ccccc5c4CCN3C[C@@H]2CC[C@@H]1O [YOHIMBINE]
half-life [41]: 3.7 min
half-life [13]: < 1 h

COc1cc(C(=O)NS(=O)(=O)c2ccccc2C)ccc1Cc1cn(C)c2ccc(NC(=O)OC3CCCC3)cc12 [ZAFIRLUKAST]
CL/F [42]: 333 mL/min

CN(C)CCc1c[nH]c2ccc(C[C@H]3COC(=O)N3)cc12 [ZOLMITRIPTAN]
Ki [43]: 0.4 nM
Ki [1]: 0.4 nM
